*1 amine or outer side, *2 acyl side, *3 side chain or, on linkers, in order; H or OH if unused. Where a SMILES comes first, the peptide text is derived from it. Bridges are numbered along the chain shown (N, C = ends). [ ]: non-standard residue; d: D form. The star is where a group is joined. X2 = N=C(N)NCCC[C@@H](C(=O)[*:2])N(CCc1ccc(N[*:3])cc1)[*:1]; X8 = N=C(N)NCCC[C@@H](C(=O)[*:2])N(CC1CCN([*:3])CC1)[*:1]; Propanoyl(3-indol-3-yl) = O=C(CCc1c[nH]c2ccccc12)*; Acetyl(1-adamantyl) = O=C(CC12CC3CC(CC(C3)C1)C2)*; Acetyl(2-naphthyloxy) = O=C(COc1ccc2ccccc2c1)*; X5 = O=C(C(Cc1cccc2ccccc12)Cc1cccc2ccccc12)*; Acetyl(2-naphthyl) = O=C(Cc1ccc2ccccc2c1)*; X7 = O=C(CN1CCC(C(=O)*)CC1)c1ccc2ccccc2c1; Fmoc = O=C(OCC1c2ccccc2-c2ccccc21)*; X1 = O=C(Cc1ccc(N[*:1])cc1)[*:2]; Cha = N[C@@H](CC1CCCCC1)C(=O)O; Inp = O=C(O)C1CCNCC1; Ava = NCCCCC(=O)O
The compounds below were run against T1, specific ANP receptor sites on BASM or BAE cells (Bos taurus, UniProt P10730) (assay: Competitive displacement receptor binding of (125I)-rANP(126-150) on cultured cells). Settings: not given.
T1 construct: specific receptor sites on BASM or BAE cells; endogenous in cells; host or cells: cultured BASM and BAE cells
T1 sequence (P10730 42-537): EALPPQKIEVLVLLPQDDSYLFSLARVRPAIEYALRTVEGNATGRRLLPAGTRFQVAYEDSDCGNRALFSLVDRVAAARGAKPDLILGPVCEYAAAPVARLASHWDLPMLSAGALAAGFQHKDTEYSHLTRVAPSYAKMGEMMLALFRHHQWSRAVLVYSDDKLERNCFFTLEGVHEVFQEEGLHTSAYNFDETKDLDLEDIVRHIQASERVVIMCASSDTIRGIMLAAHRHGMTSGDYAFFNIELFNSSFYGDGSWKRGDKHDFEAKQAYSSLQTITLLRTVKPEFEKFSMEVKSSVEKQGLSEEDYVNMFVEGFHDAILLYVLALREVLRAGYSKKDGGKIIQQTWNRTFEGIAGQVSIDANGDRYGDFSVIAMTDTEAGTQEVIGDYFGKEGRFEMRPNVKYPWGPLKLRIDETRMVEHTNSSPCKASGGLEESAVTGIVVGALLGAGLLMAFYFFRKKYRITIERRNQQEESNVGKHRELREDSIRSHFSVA
Set-up: species or system bovine
Source text: Analogous "competitive displacement" receptor binding assays are considered commonplace in the art for examining specific ligand-receptor interactions.
Assuming these ANP analogs act at one or more ANP receptor sites, then increased receptor affinity should reflect increased biological potency.

| Structure (SMILES) | receptor binding / activity as judged by Ki, in words |
| --- | --- |
| CC[C@H](C)[C@H](NC(=O)[C@H](CCCNC(=N)N)NC(=O)[C@H](CC(=O)O)NC(=O)[C@H](Cc1ccccc1)NC(=O)[C@H](CCCNC(=N)N)NC(=O)CNC(=O)CNC(=O)Cc1ccc2ccccc2c1)C(N)=O [AP521, (2-NA)--G--G--R--F--D--R--I--NH2] ({Acetyl(2-naphthyl)}-GGRFDRI-NH2) | very low, if any, activity |

Same assay, conditions: Table 2A; unit not given; in nM

| Structure (SMILES) | Ki |
| --- | --- |
| CC[C@H](C)[C@@H]1NC(=O)[C@H](CCCNC(=N)N)NC(=O)[C@H](CC(=O)O)NC(=O)[C@H]([C@@H](C)CC)NC(=O)[C@H](CCCNC(=N)N)NC(=O)CNC(=O)CNC(=O)[C@H](Cc2ccccc2)NC(=O)[C@@H](NC(=O)[C@H](CO)NC(=O)[C@H](CO)NC(=O)[C@@H](N)CCCNC(=N)N)CSSC[C@@H](C(=O)N[C@@H](CC(N)=O)C(=O)N[C@@H](CO)C(=O)N[C@@H](Cc2ccccc2)C(=O)N[C@@H](CCCNC(=N)N)C(=O)N[C@@H](Cc2ccc(O)cc2)C(=O)O)NC(=O)CNC1=O [AP21] (H-RSSCFGGRIDRIGCNSFRY-OH; disulfide 4-14) | 15.15 |

Same assay, conditions: concentration of unlabeled peptide displacing 50% of maximal binding of 0.5 nM (125I)-rANP(126-150); BASM or BAE cells

| Structure (SMILES) | Ki(app) |
| --- | --- |
| CC[C@H](C)[C@H](NC(=O)[C@H](CCCNC(=N)N)NC(=O)[C@H](CC(=O)O)NC(=O)[C@@H](NC(=O)[C@H](CCCNC(=N)N)NC(=O)CCCCNC(=O)COc1ccc2ccccc2c1)[C@@H](C)CC)C(N)=O [AP307, (2-Naphthoxyacetyl)-NH(CH2)4 CO-R-I-D-R-I-NH2] ({Acetyl(2-naphthyloxy)-Ava}-RIDRI-NH2) | 39.9 nM |
| CC[C@H](C)[C@H](NC(=O)[C@H](CCCNC(=N)N)NC(=O)[C@H](CC(=O)O)NC(=O)[C@@H](NC(=O)[C@H](CCCNC(=N)N)NC(=O)CCCCNC(=O)OCC1c2ccccc2-c2ccccc21)[C@@H](C)CC)C(N)=O [AP323, (FMOC)--NH(CH2)4 CO--R--I--D--R--I--NH2] ({Fmoc-Ava}-RIDRI-NH2) | 162.6 nM |
| CC[C@H](C)[C@H](NC(=O)[C@H](CCCNC(=N)N)NC(=O)[C@H](CC(=O)O)NC(=O)[C@H](Cc1ccccc1)NC(=O)[C@H](CCCNC(=N)N)NC(=O)CNC(=O)CNC(=O)Cc1ccc2ccccc2c1)C(N)=O [AP521, (2-NA)--G--G--R--F--D--R--I--NH2] ({Acetyl(2-naphthyl)}-GGRFDRI-NH2) | 400 nM |
| CC[C@H](C)[C@H](NC(=O)[C@H](CCCNC(=N)N)NC(=O)[C@H](CC(=O)O)NC(=O)[C@@H](NC(=O)[C@H](CCCNC(=N)N)NC(=O)CNC(=O)CNC(=O)Cc1ccc2ccccc2c1)[C@@H](C)CC)C(=O)NCC(=O)N[C@@H](C)C(N)=O [AP306, (2--Naphthylacetyl)-G-G-R-I-D-R-I-G-A-NH2] ({Acetyl(2-naphthyl)}-GGRIDRIGA-NH2) | 2.03 nM |
| CC[C@H](C)[C@H](NC[C@H](CCCCN)NC(=O)[C@H](CC(=O)O)NC(=O)[C@@H](NC(=O)[C@H](CCCNC(=N)N)NC(=O)Cc1ccc(NC(=O)Cc2ccc3ccccc3c2)cc1)[C@@H](C)CC)C(N)=O [AP807] | 112 nM |
| CC[C@H](C)[C@H](NC(=O)[C@H](CCCNC(=N)N)NC(=O)[C@H](CC(=O)O)NC(=O)[C@@H](NC(=O)[C@H](CCCNC(=N)N)NCC1CCN(C(=O)Cc2ccc3ccccc3c2)CC1)[C@@H](C)CC)C(N)=O [AP704] (H-[X8](Acetyl(2-naphthyl))IDRI-NH2) | 17.0 nM |
| CC[C@H](C)[C@H](NC(=O)[C@H](CCCNC(=N)N)NC(=O)[C@H](CC(=O)O)NC(=O)[C@@H](NC(=O)[C@H](CCCNC(=N)N)NC(=O)CNC(=O)CNC(=O)Cc1ccc2ccccc2c1)[C@@H](C)CC)C(=O)NCCCCC(N)=O [AP526, (2-NA)--G--G--R--I--D--R--I--NH--(CH2)4 --CONH2] ({Acetyl(2-naphthyl)}-GGRIDRI[Ava]-NH2) | 50.5 nM |
| CC[C@H](C)[C@H](NC(=O)[C@H](CCCNC(=N)N)NC(=O)[C@H](CC(=O)O)NC(=O)[C@@H](NC(=O)[C@H](CCCNC(=N)N)NC(=O)CCCCNC(=O)Cc1ccc2ccccc2c1)[C@@H](C)CC)C(N)=O [AP324, (2-NA)--NH(CH2)4 CO--R--I--D--R--I--NH2] ({Acetyl(2-naphthyl)-Ava}-RIDRI-NH2) | 48.5 nM |
| CC[C@H](C)[C@H](NC(=O)[C@H](CCCNC(=N)N)NC(=O)[C@H](CC(=O)O)NC(=O)[C@@H](NC(=O)[C@H](CCCCN)NC(=O)CNC(=O)CNC(=O)Cc1ccc2ccccc2c1)[C@@H](C)CC)C(N)=O [AP523, (2-NA)--G--G--K--I--D--R--I--NH2] ({Acetyl(2-naphthyl)}-GGKIDRI-NH2) | 36.7 nM |
| CC[C@H](C)[C@H](NC(=O)[C@H](CCCNC(=N)N)NC(=O)[C@H](CC(=O)O)NC(=O)[C@@H](NC(=O)[C@H](CCCCN)NC(=O)Cc1ccc(NC(=O)COc2ccc3ccccc3c2)cc1)[C@@H](C)CC)C(N)=O [AP798] ({Acetyl(2-naphthyloxy)}-[X1]KIDRI-NH2) | 3.95 nM |
| CC[C@H](C)[C@H](NC(=O)[C@H](CCCNC(=N)N)NC(=O)[C@H](CC(=O)O)NC(=O)[C@@H](NC(=O)[C@H](CCCNC(=N)N)NC(=O)C1CCN(C(=O)Cc2ccc3ccccc3c2)CC1)[C@@H](C)CC)C(N)=O [AP538] ({Acetyl(2-naphthyl)-Inp}-RIDRI-NH2) | 9.9 nM |
| CC[C@H](C)[C@H](NC(=O)[C@H](CCCNC(=N)N)NC(=O)[C@H](CC(=O)O)NC(=O)[C@@H](NC(=O)[C@H](CCCNC(=N)N)NC(=O)C1CCN(CC(=O)c2ccc3ccccc3c2)CC1)[C@@H](C)CC)C(N)=O [AP574] (X7-RIDRI-NH2) | 26.5 nM |
| CC[C@H](C)[C@H](NC(=O)[C@H](CCCNC(=N)N)NC(=O)[C@H](CC(=O)O)NC(=O)[C@H](CC1CCCCC1)NC(=O)[C@H](CCCNC(=N)N)NC(=O)CNC(=O)CNC(=O)Cc1ccc2ccccc2c1)C(N)=O [AP527, (2-NA)--G--G--R--Cha--D--R--I--NH2] ({Acetyl(2-naphthyl)}-GGR[Cha]DRI-NH2) | 22.5 nM |
| CC[C@@H](C)[C@@H](NC(=O)[C@H](CCCNC(=N)N)NC(=O)[C@H](CC(=O)O)NC(=O)[C@@H](NC(=O)[C@H](CCCNC(=N)N)NC(=O)CNC(=O)CNC(=O)[C@H](Cc1ccccc1)NC(=O)[C@H](C)N)[C@@H](C)CC)C(=O)NCC(=O)N[C@@H](C)C(N)=O [AP305, A--F--G--G--R--I--D--R--I^ --G--A--NH2] (H-AFGGRIDR[dI]GA-NH2) | 70.62 nM |
| CC[C@H](C)[C@H](NC(=O)[C@H](CCCNC(=N)N)NC(=O)CNC(=O)CNC(=O)Cc1ccc2ccccc2c1)C(=O)N[C@@H](CC(=O)O)C(=O)N[C@@H](CCCNC(=N)N)C(=O)N[C@@H](CC(C)C)C(N)=O [AP332, (2-NA)--G--G--R--I--D--R--L--NH2] ({Acetyl(2-naphthyl)}-GGRIDRL-NH2) | 44.2 nM |
| CC[C@H](C)[C@H](NC(=O)[C@H](CCCNC(=N)N)NC(=O)[C@H](CC(=O)O)NC(=O)[C@@H](NC(=O)[C@H](CCCNC(=N)N)NC(=O)[C@@H](C)NC(=O)CNC(=O)[C@H](Cc1ccccc1)NC(=O)[C@H](C)N)[C@@H](C)CC)C(=O)NCC(=O)N[C@@H](C)C(N)=O [AP157, A--F--G--A^ --R--I--D--R--I--G--A--NH2] (H-AFG[dA]RIDRIGA-NH2) | 5.90 nM |
| CC[C@H](C)[C@H](NC(=O)[C@H](CCCNC(=N)N)NC(=O)CNC(=O)CNC(=O)Cc1ccc2ccccc2c1)C(=O)N[C@@H](CC(=O)O)C(=O)N[C@@H](CCCNC(=N)N)C(=O)N[C@H](C(N)=O)C(C)C [AP333, (2-NA)--G--G--R--I--D--R--V--NH2] ({Acetyl(2-naphthyl)}-GGRIDRV-NH2) | 106.4 nM |
| CC[C@H](C)[C@H](NC(=O)[C@H](CCCNC(=N)N)NC(=O)[C@H](CC(=O)O)NC(=O)[C@@H](NC(=O)[C@H](CCCNC(=N)N)NCCc1ccc(NC(=O)COc2ccc3ccccc3c2)cc1)[C@@H](C)CC)C(N)=O [AP816] (H-[X2](Acetyl(2-naphthyloxy))IDRI-NH2) | 17.4 nM |
| CC[C@H](C)[C@H](NC(=O)[C@H](CCCNC(=N)N)NC(=O)[C@H](CC(=O)O)NC(=O)[C@@H](NC(=O)[C@H](CCCNC(=N)N)NC(=O)CNC(=O)CNC(=O)C(Cc1cccc2ccccc12)Cc1cccc2ccccc12)[C@@H](C)CC)C(=O)NCC(=O)N[C@@H](C)C(N)=O [AP533] (X5-GGRIDRIGA-NH2) | 52.0 nM |
| CC[C@H](C)[C@H](NC(=O)[C@H](CCCNC(=N)N)NC(=O)[C@H](CC(=O)O)NC(=O)[C@@H](NC(=O)[C@H](CCCNC(=N)N)NC(=O)CNC(=O)CNC(=O)OCC1c2ccccc2-c2ccccc21)[C@@H](C)CC)C(N)=O [AP311, (FMOC)--G--G--R--I--D--R--I--NH2] (Fmoc-GGRIDRI-NH2) | 10.33 nM |
| CC[C@H](C)[C@H](NC(=O)[C@H](CCCNC(=N)N)NC(=O)[C@H](CC(=O)O)NC(=O)[C@@H](NC(=O)[C@H](CCCNC(=N)N)NC(=O)CNC(=O)CNC(=O)CC12CC3CC(CC(C3)C1)C2)[C@@H](C)CC)C(N)=O [AP309, (1-AA)--G--G--R--I--D--R--I--NH2] ({Acetyl(1-adamantyl)}-GGRIDRI-NH2) | 30.0 nM |
| CC[C@H](C)[C@H](NC(=O)[C@H](CCCNC(=N)N)NC(=O)[C@H](CC(=O)O)NC(=O)[C@@H](NC(=O)[C@H](CCCNC(=N)N)NC(=O)CNC(=O)CNC(=O)CCc1c[nH]c2ccccc12)[C@@H](C)CC)C(=O)NCC(=O)N[C@@H](C)C(N)=O [AP313, (IP)--G--G--R--I--D--R--I--G--A--NH2] ({Propanoyl(3-indol-3-yl)}-GGRIDRIGA-NH2) | 4.52 nM |
| CC[C@H](C)[C@H](NC(=O)[C@H](CCC(N)=O)NC(=O)[C@H](CC(=O)O)NC(=O)[C@@H](NC(=O)[C@H](CCCNC(=N)N)NC(=O)CNC(=O)CNC(=O)Cc1ccc2ccccc2c1)[C@@H](C)CC)C(N)=O [AP351, (2-NA)--G--G--R--I--D--Q--I--NH2] ({Acetyl(2-naphthyl)}-GGRIDQI-NH2) | 20.0 nM |

Source: US5047397A, “Linear analogs of atrial natriuretic peptides” (California Biotechnology Inc., priority 1988, dated 1991)
